# Measurements as given in US20080124385A1, “Methods for Transmembrane Treatment and Prevention of Otitis Media” (Piedmont Pharmaceuticals,LLC., priority 2004, published 2008).
# Test system: Haemophilus influenzae
# Assay: Chinchilla model of otitis media (middle ear inoculated with Haemophilus influenzae)
# Format: in vivo, Chinchilla langer
# Settings: oral gavage, 20 mg/kg BID for 6 days; 3 animals/group; positive control
# Experimental: To establish and evaluate the animal model, each chinchilla was inoculated with Haemophilus influenzae directly into the middle ear of each ear by transbullar injection at a concentration of 100 cfu in a volume of 0.2 mL. Each chinchilla was given an otoscope ear exam prior to being placed on study. Dosing with a composition of the invention or control oral amoxicillin began approximately 48 hours after the bacterial inoculation. All animals were administered Buprenorphine 0.05 mg/kg twice a day subcutaneously for analgesia for the duration of the study.
# At the end of the dosing period (8 days after bacterial inoculation), each animal was euthanized, their ear canals washed with saline, and examined. In particular, samples from the middle ear from each chinchilla were collected. One ear sample was cultured overnight per laboratory procedures. Approximately 24 hours after the samples plated out, they were counted and the colony forming units (cfu) recorded.
# The positive control article (amoxicillin) was administered orally by gavage to three chinchillas twice per day for 6 days, approximately 8 hours apart. 2, 4 or 6 drops of ofloxacin 0.3% liposome formulation or ciprofloxacin 0.3% liposome formulation were administered to two groups of three chinchillas each as a maximal feasible dose for these animals.
compound,measurement,value
"CC1(C)S[C@@H]2[C@H](NC(=O)[C@H](N)c3ccc(O)cc3)C(=O)N2[C@H]1C(=O)O [Amoxicillin, amoxicillin]",Active infection present after 6 days,No active infection present in any animal
